Results taken from patent US20030148963A1 (priority 2000, published 2003).
Marks after values point to notes of the source that are not given here.

Key:
[1] = test system: S. aureus-induced arthritis; experiment: Histopathological and immunohistochemical examination of joints, S. aureus arthritis; type: in vivo, NMRI mice
Procedure: The mice were sacrificed 6 days after bacterial inoculation One front and one hind paw from each animal in both groups (etoposide-treated and controls) were removed. Histopathological examination was performed after routine fixation, decalcification, paraffin embedding, and staining with hematoxylin and eosin. All the slides were coded and the joints were studied with regard to synovial hypertrophy (defined as a synovial membrane thickness of more than two cell layers), pannus formation (synovial tissue overlaying the joint cartilage), and cartilage and bone destruction.
In another experiment, mice were killed by cervical dislocation 6 days after bacterial inoculation, all four limbs were removed and demineralized by a procedure detailed in an earlier report. The demineralized specimens were mounted on cryostat chucks, frozen in isopentane prechilled by liquid nitrogen, and kept at −70° C. until cryosectioned. Six μm-thick sections were cut frontally to permit simultaneous inspection of most joints within the paw. All sections were fixed in cold acetone for 5 min, washed in PBS, and depleted of endogenous peroxidase by treatment with 0.3% H2O2 for 5 min. The sections were incubated overnight in a humid atmosphere at +4° C. with 50 μl portions of unlabelled rat monoclonal antibody specific for macrophages (Mac-3, clone M3/84 from PharMingen), diluted in PBS containing 1% BSA. Biotin-labelled rabbit antl-rat Ig diluted in PBS-BSA was used as secondary antibody. Binding of secondary antibodies was detected by stepwise incubation with avidin-biotin-peroxidase complexes (ABC) and a buffert containing 3-amino-9-ethyl-carbazole and H2O2. All sections were counterstained with Mayer's hematoxylin.

IL-6 = IL-6 release by IC-21 macrophage cell line; type: cell-based, murine
Procedure: These cells display many typical features of the macrophage phenotype and are therefore a suitable model for studying cytoline and chemokine release during inflammation (16). The cells were maintained in continous culture using RPMI-1640 supplemented with 10% FCS, L-glutamine, and gentamycin. When the cells had grown to about 70% confluency, they were seeded into a 24-well-plate (Nunc) at a concentration of 1×10^5 per well and incubated at 37° C. in 5% CO2 for 24 h. […] After 24 h of incubation, the cells were washed once with PBS, and reincubated with medium containing different concentrations (1, 10, 100, 1000 ng/ml) of LPS (Difco) and IFN-γ (10, 50, 100 u/nml). The interferon-γ was purified from the supernatants from Chinese hanater ovary (CHO) cells transfected with the murine IFN-γ gene (hybridoma kindly provided by Dr. Morris, Department of Biological Sciences, University of Warwick, Coventry, UK). After 2 and 24 h of incubation the supernatants were collected and stored at −20° C. until analysis.

IL-1α = experiment: IL-1 release by IC-21 macrophage cell line; type: cell-based, murine
IFN-γ = experiment: Serum IFN-γ in CII immunized mice (ELISA); type: in vivo, B10.QxDBA/1 female mice; settings: serum at end of experiment, mean ± SEM
Procedure: For quantification of serfu CII antibodies, 96-well plates (Nunc, Roskilde, Denmark) were coated overnight at 4° C. with 10 μg/ml of native CII. Standards and samples were diluted in 0.5% BSA-PBS. Biotinylated F(ab/)2 fragments of goat anti-mouse IgG (Jackson ImmunoResearch Laboratories, West Grove, Pa.) was used as secondary antibody. Development was performed using horseradish peroxidase 0.5 μg/ml and 2.5 mg of the enzyme substrate 2,2-azino-bis-(3-ethylbenzothiazoline sulfonic acid) (Sigma) per mal in citrate buffer (pH 4.2), containing 0.0075% H2O2. The absorbance was measured at 405 nm in a SPECTRAmax spectrophotometer (Molecular Devices, Calif.). IFN-γ levels in sera were quantified with an ELISA system previously described (13). Ninety-six well plates (Nunc) were coated with 2 μg/ml of rat anti-mouse IFN-γ mab (Pharmingen, San Diego, Calif.). Sera, recombinant IFN-γ (Genzyme, Cambridge, Mass.), biotinylated antibodies were all diluted in 0.05 M Tris pH 7.4+0.015 M NaCl. A biotinylated anti mouse IFN-γ antibody (2 μg/ml) (Pharmigen) was used as secondary antibody. After incubation with extravidin alkaline phosphatase 0.5 ?g/ml and alkaline phosphatase substrate 1 mg/ml (Sigma) the absorbance was measured at 405 nm. Interleukin 6 (IL-6) levels in serum and supernatants were measured by a bioassay using cell line B13.29, subclone B9, which is dependent on IL-6 for growth. […]

S. aureus LS-1 = experiment: Determination of bacterial growth in kidneys, blood and joints; type: in vivo; settings: for Bacterial growth in blood / Bacterial growth in kidney: mean ± SEM
Procedure: On days 3 and 6-7 after S. aureus inoculation blood samples were obtained and the kidneys were aseptically removed. Appropriate dilutions were made and 0.1 ml of tissue suspensions and of whole blood was plated on agar plates containing 5% horse blood. Six days after the inoculation bacterial samples from the talocrural and radiocarpal joints were obtained and plated on agar plates, containing 7.5% sodium chloride. After incubation for 48 h at 37° C. the bacterial colonies were counted and tested for catalase and coagulase activity.

TNF = type: cell-based, NMRI mice; settings: spleen cells from non-infected in vivo etoposide-treated mice; mean ± SEM, four mice
peripheral leukocytes = experiment: Peripheral blood cell count in naive mice; type: in vivo; settings: 12.5 mg/kg 4 days per week for 4 weeks, 3 days after last treatment
Procedure: Mice were bled from the tail into heparinized tubes at different time-points. The leukocytes were counted in a hemacytometer (Toa Medical Electronics, Kobe, Japan). Fifty microliters of the heparinized blood was analyzed in a FACScan cytometer (Becton Dickinson, San Jose, Calif.) to determine the percentages of lymphocytes, granulocytes, and monocytes. The absolute numbers of different leukocyte subsets were then calculated from the total leukocyte counts.

[2] = Day 3 after 1-2×10^7 CFU S. aureus
[3] = Day 6-7 after 1-2×10^7 CFU S. aureus

**Q.** What does the source list for COc1cc([C@@H]2c3cc4c(cc3[C@@H](O[C@@H]3O[C@@H]5CO[C@@H](C)O[C@H]5[C@H](O)[C@H]3O)[C@H]3COC(=O)[C@H]23)OCO4)cc(OC)c1O [Etoposide]?
**A.** Mice with cartilage and bone destructions ([1]; 6 days after S. aureus inoculation, controls 8 out of 10): 4 out of 8; Mice with synovial hypertrophy ([1]; 6 days after S. aureus inoculation, controls 9 out of 10): 4 out of 8; Numbers of Mac-3 positive cells in joints ([1]; S. aureus infected, etoposide vs PBS, data not shown): did not show any significant differences; Levels of IL-6 in supernatants (IL-6; IC-21, stimulated with IFN-γ, levels very low, FIG. 6B): seemed to be upregulated; Levels of IL-6 in supernatants (IL-6; IC-21, stimulation by LPS, FIG. 6A): downregulated; Levels of IL-1α (IL-1α): No major differences; IFN-g (IFN-γ; Etoposide-pretreated): 1848 ± 248^c u/ml; IFN-g (IFN-γ; Etoposide-treated (from day 40)): 2094 ± 199^b u/ml; Mice with bacteria recovered from joints (S. aureus LS-1; 6 days after inoculation, controls 3 out of 10): 3 out of 8; Bacterial growth in blood (S. aureus LS-1; [2]): 60 × 10^7 CFU/ml; Bacterial growth in kidney (S. aureus LS-1; [2]): 3 ± 2 × 10^7 CFU; Bacterial growth in blood (S. aureus LS-1; [3]): 290 ± 100 × 10^7 CFU/ml; Bacterial growth in kidney (S. aureus LS-1; [3]): 67 ± 12 × 10^7 CFU; TNF, ConA stimulated (TNF): 138 ± 17 pg/mL; TNF, TSST-1 stimulated (TNF): 77 ± 22 pg/mL; Numbers of granulocytes (peripheral leukocytes): 1.1±0.4 ×10^4/ml; Numbers of monocytes (peripheral leukocytes): 71±28 ×10^4/ml
